Data from patent US6815557B2, “Tryptase inhibitors” (Altana Pharma AG, priority 1999, dated 2004).
Where a name gives a salt, the structure may show the parent alone.

Molecular target: human tryptase
Test: Inhibition of human tryptase (apparent dissociation constant Kiapp, chromogenic substrate tos-Gly-Pro-arg-pNA, heparin-stabilized)
Assay type: biochemical
Conditions: apparent dissociation constant in the presence of substrate; human tryptase from lung tissue or recombinant; heparin 0.1-50 μg/ml; equilibrium conditions
Description: The documented pathophysiological effects of mast cell tryptase are caused directly by the enzymatic activity of the protease. Accordingly, they are reduced or blocked by inhibitors which inhibit the enzymatic activity of the tryptase. A suitable measure for the affinity of a reversible inhibitor to the target protease is the equilibrium dissociation constant Ki of the enzyme-inhibitor complex. This Ki value can be determined via the effect of the inhibitor on the tryptase-induced cleavage of a chromogenic peptide-p-nitroanilide substrate or a fluorogenic peptide-aminomethylcoumarin substrate.
The dissociation constants for the tryptase-inhibitor complexes are determined under equilibrium conditions in accordance with the general proposals of Bieth (Bieth J G, Pathophysiological Interpretation of kinetic constants of protease inhibitors, Bull. Europ. Physiopath. Resp. 16:183-195, 1980) and the methods of Sommerhoff et al. (Sommerhoff C P et al., A Kazal-type inhibitor of human mast cell tryptase: Isolation from the medical leech Hirudo medicinalis, characterization, and sequence analysis, Biol. Chem. Hoppe-Seyler 375: 685-694, 1994).
Human tryptase is isolated from lung tissue or prepared recombinantly; the specific activity of the protease, determined by titration, is usually greater than 85% of the theoretical value. […] After an equilibrium between the reaction partners has formed, the remaining enzyme activity after addition of the peptide-p-nitroanilide substrate tos-Gly-Pro-arg-pNA is determined and the cleavage of the latter is monitored at 405 nm for 3 min. Alternatively, the remaining enzymatic activity can also be determined using fluorogenic substrates. The apparent dissociation constants Kiapp (i.e. in the presence of substrate) are subsequently determined by adapting the enzyme rates to the general equation for reversible inhibitors (Morrison J F, Kinetics of the reversible inhibition of enzyme-catalyzed reactions by tight-binding inhibitors, Biochim. Biophys. Acta 185, 269-286, 1969) using non-linear regression: […]

`NCc1cccc(CNC(=O)OCCOCC#CCOCCOC(=O)NCc2cccc(CN)c2)c1` [Compound 1, 1,4-Bis-(3-aminomethylbenzylaminocarbonyl-1,2-dioxyethyl)-2-butyne dihydrochloride] gave a Ki of 6 nM.
`NCc1ccc(CNC(=O)OCC#CC#CCOC(=O)NCc2ccc(CN)cc2)cc1` [Compound 2, 1,6-Bis-(4-aminomethylbenzylaminocarbonyl-1-oxy-2,4-hexadiynedihydrochloride] showed a Ki of 450 nM.
Work on `NCc1cccc(CNC(=O)OCC#CCOC(=O)NCc2cccc(CN)c2)c1` [Compound 3, 1,4-Bis-(3-aminomethylbenzylaminocarbonyl-1-oxy)-2-butyne dihydrochloride] yielded a Ki of 100 nM.
